The values that follow are results of earlier work, collected in patent US20090023700A1, “NEUROPROTECTIVE TREATMENTS” (University of Louisville Research Foundation, priority 2007, published 2009).

The structures appear in SMILES notation.

The subject of this series is AP1. The settings on record: macrophages; cited from earlier work.

On to `O=C(O)c1ccccn1.OO.OO.[K+].[K+].[O]=[V]` [bpV(pic), potassium bisperoxo(pyridine-2-carboxylato)oxovanadate(V)], for which the AP1 activation result is on record as “does not”.
